Source: patent US20070020713A1, “Antibodies to the fuel oxygenate mtbe and use thereof in immunoassays” (priority 2003, published 2007)
Where a name gives a salt, the structure may show the parent alone.

Tested on: anti-MTBE antibody prepared in Example 1 (anti-MTBE/7-methoxy-3,7-dimethyloctanal antibody)
Assay: Anti-MTBE monoclonal antibody cross-reactivity, indirect competitive ELISA
Format: binding
Details: for IC50 (concentration of analyte required to inhibit the maximum assay signal B0 by 50%): B/B0=50%, read from FIG. 4

SMILES	IC50 (concentration of analyte required to inhibit the maximum assay signal B0 by 50%)	cross-reactivity of the antibody (FIG. 4)
CC(C)(C)OC=O [TBF, tert-butyl formate]	~60 µg/mL	–
CC(C)(C)O [TBA, tert-butyl alcohol]	~180 µg/mL	–
CO [methanol]	–	no significant cross-reactivity
COC(C)(C)C [MTBE, methyl tert-butyl ether]	~10 µg/mL	–
CCC(C)(C)OC [TAME, methyl tert-amyl ether]	~10 µg/mL	–
